Measured values: ChEMBL document CHEMBL1134935, “Novel lopinavir analogues incorporating non-Aromatic P-1 side chains--synthesis and structure--activity relationships” (Bioorg Med Chem Lett, 2002)

Key:
MT4 [1] = experiment: Cytotoxicity against MT-4 cells; assay type: functional, cell-based; settings: Homo sapiens
[2] = target: Human immunodeficiency virus type 1 protease (Human immunodeficiency virus 1) (UniProt Q72874); experiment: Compound was tested for its inhibitory potency against HIV protease at 0.5 nM
MT4 [3] = experiment: Antiviral activity against the cytopathic effects of HIV IIIB in MT-4 cells was assayed in the presence of 50% human serum; assay type: functional, cell-based

inhibition [2] [%]	Compound	IC50 (MT4 [1]) [µM]	EC50 (MT4 [3]) [µM]
87	CCCC[C@@H](C[C@H](O)[C@H](Cc1ccccc1)NC(=O)COc1c(C)cccc1C)NC(=O)[C@H](C(C)C)N1CCCNC1=O	32.9	0.92
97	Cc1cccc(C)c1OCC(=O)N[C@@H](Cc1ccccc1)[C@@H](O)C[C@H](CCC(C)C)NC(=O)[C@H](C(C)C)N1CCCNC1=O	18.7	0.34
64	Cc1cccc(C)c1OCC(=O)N[C@@H](Cc1ccccc1)[C@@H](O)C[C@H](CC(C)C)NC(=O)[C@H](C(C)C)N1CCCNC1=O	34.4	0.32

Further lines, the compound ahead of its results:

Compound	inhibition [2] [%]	IC50 (MT4 [1]) [µM]	EC50 (MT4 [3]) [µM]
Cc1cccc(C)c1OCC(=O)N[C@@H](Cc1ccccc1)[C@@H](O)C[C@H](Cc1ccccc1)NC(=O)[C@H](C(C)C)N1CCCNC1=O [LOPINAVIR]	93	17.8	0.1
Cc1cccc(C)c1OCC(=O)N[C@@H](Cc1ccccc1)[C@@H](O)C[C@@H](NC(=O)[C@H](C(C)C)N1CCCNC1=O)C(C)C	93	56.2	0.26
CCC(CC)C[C@@H](C[C@H](O)[C@H](Cc1ccccc1)NC(=O)COc1c(C)cccc1C)NC(=O)[C@H](C(C)C)N1CCCNC1=O	87	17.8	2.8
